Measured values as given in patent publication US20220347308A1, “METHODS AND MEANS FOR INDUCING AN IMMUNE RESPONSE” (BIONTECH AG, priority 2015, published 2022).

Tested on: interferon-alpha
Assay: Sensitization by a first danger signal to a subsequent Protamine-RNA injection, serum interferon-alpha (ELISA)
Assay type: in vivo, mice
Details: first injection: 50 micrograms CpG, 10 micrograms imiquimod, 2 micrograms dsRNA or 10 micrograms RNA in particles, then 10 micrograms RNA in Protamine particles, sera 3 h after second injection, vs single Protamine-RNA injection
Procedure: The DNA oligonucleotide “CpG 1585” (invivogen) which is a mouse TLR9 agonist was diluted at 0.5 micrograms per microlitre in PBS. Imiquimod (invivogen) was diluted to 0.1 microgram per microliter in PBS. RNA (mRNA coding for firefly luciferase) and Protamine were diluted to 0.5 mg/ml using pure water. Hundred micrograms RNA (200 microliters) were mixed with hundred micrograms Protamine IPEX (200 microliters) thereby generating approximately 100 nm particles. Forty percent Glucose was added to reach 5% glucose final and 5% Glucose was added so that the final injectable solution contains 10 micrograms RNA (and 10 micrograms Protamine) in 70 microliters.
Mice were injected intravenous with 100 microliters of CpG (50 micrograms DNA “CpG(2h)PR11”) or 100 microliters of imiquimod (10 micrograms Imiquimod “Imi(2h)PR11”) or 70 microliters of Protamine-RNA particles (10 micrograms RNA “PR11(2h)PR11”) and 2 hours later all received 70 microliters of Protamine-RNA (10 micrograms RNA) intravenous. Three mice per group. Sera were drawn 3 hours after this second injection. As controls, mice were injected intravenous with 100 microliters of CpG (50 micrograms “CpG alone”) or 100 microliters of imiquimod (10 micrograms “Imi alone”) or 70 microliters of Protamine-RNA particles (10 micrograms RNA “PR11 alone”). Three mice per group. […] Interferon-alpha was measured in sera using Verikine™ ELISA kit from PBL. […]

CC(C)Cn1cnc2c(N)nc3ccccc3c21 [Imiquimod]
interferon-alpha in serum when given i.v. as first injection 2 h before Protamine-RNA particles: can sensitize the immune system to produce an enhanced amount of interferon-alpha | interferon-alpha in serum when given i.v. as first injection 2 h before Protamine-RNA particles (listed as imiquimod): strong (synergistic) interferon production
